Experimental data from patent US20250215039A1, “NUCLEOSIDES FOR TREATING CANCER” (PRIMEFOUR THERAPEUTICS, INC., priority 2022, published 2025).
Where two headings read alike, the source gives them in different places.

Legend:
cancer cell lines = assay: Cancer cell proliferation activity (CellTiterGlo, 72 h); format: cell-based; settings: for IC50: 72 h, read-out: IC50
Outline: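 Readout is CellTiterGlo luminescence after 72 h compound exposure (0.1% DMSO final), started one day post-seeding, at 37 °C.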

[1] = biological target: human cytidine deaminase (CDA) (Homo sapiens, UniProt P32320); assay: Metabolism by human cytidine deaminase (CDA), substrate absorbance at 290 nm; settings: 12 nM CDA, 50 and 200 uM substrate, 37° C., pH 7.5; figure legends FIG. 4-9
Sequence of human cytidine deaminase (CDA) (P32320 whole entry): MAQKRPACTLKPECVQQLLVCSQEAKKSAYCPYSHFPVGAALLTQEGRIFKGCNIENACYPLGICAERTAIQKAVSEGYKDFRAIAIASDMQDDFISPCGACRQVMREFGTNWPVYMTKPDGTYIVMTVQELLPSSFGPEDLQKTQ

Compound: C[C@]1(CO)O[C@@H](n2cc(F)c(N)nc2=O)C[C@@H]1O [Cpd. No. 4, 4-amino-5-fluoro-1-((2R,4S,5R)-4-hydroxy-5-(hydroxymethyl)-5-methyltetrahydrofuran-2-yl)pyrimidin-2(1H)-one]
- IC50 (cancer cell lines; 5637 cell line (bladder)): 30 nM
- IC50 (cancer cell lines; CLS439 cell line (bladder)): 17600 nM
- IC50 (cancer cell lines; HS729 cell line (muscle)): 1410 nM
- IC50 (cancer cell lines; JAR cell line (placenta)): > 50000 nM
- IC50 (cancer cell lines; U20S cell line, bone): > 50000 nM
- IC50 (cancer cell lines; Homo sapiens, 22Rv1, 72 h, 22RV1 cell line (prostate)): 400 nM
- IC50 (cancer cell lines; Homo sapiens, 786-0, 72 h, 786O cell line (kidney)): > 50000 nM
- IC50 (cancer cell lines; Homo sapiens, A204, 72 h, A204 cell line (muscle)): 140 nM
- IC50 (cancer cell lines; Homo sapiens, A549, 72 h, A549 cell line, lung): 240 nM
- IC50 (cancer cell lines; Homo sapiens, A673, 72 h, A673 cell line (bone)): 510 nM
- IC50 (cancer cell lines; Homo sapiens, A2780, 72 h, A2780 cell line (ovary)): 680 nM
- IC50 (cancer cell lines; Homo sapiens, A-375, 72 h, A375 cell line (skin)): 730 nM
- IC50 (cancer cell lines; Homo sapiens, A-431, 72 h, A431 cell line (skin)): 40 nM
- IC50 (cancer cell lines; Homo sapiens, ACHN, ACHN cell line (kidney)): 50 nM
- IC50 (cancer cell lines; Homo sapiens, ASPC1, 72 h, ASPC1 cell line (pancreas)): 10 nM
- IC50 (cancer cell lines; Homo sapiens, BT-20, 72 h, BT20 cell line (breast)): > 50000 nM
- IC50 (cancer cell lines; Homo sapiens, BXPC-3, 72 h, BXPC3 cell line (pancreas)): 10 nM
- IC50 (cancer cell lines; Homo sapiens, C-33-A, C33A cell line, endometrial): 130 nM
- IC50 (cancer cell lines; Homo sapiens, CAKI-1, 72 h, CAKI1 cell line (kidney)): 400 nM
- IC50 (cancer cell lines; Homo sapiens, COLO 205, 72 h, COLO205 cell line (colon)): 60 nM
- IC50 (cancer cell lines; Homo sapiens, COLO-678, 72 h, COLO678 cell line (colon)): > 50000 nM
- IC50 (cancer cell lines; Homo sapiens, Ca-Ski, CASKI cell line, endometrial): 6170 nM
- IC50 (cancer cell lines; Homo sapiens, Caco-2, 72 h, CACO2 cell line (colon)): > 50000 nM
- IC50 (cancer cell lines; Homo sapiens, Calu-6, 72 h, CALU6 cell line (lung)): 250 nM
- IC50 (cancer cell lines; Homo sapiens, DLD-1, 72 h, DLD1 cell line (colon)): 3660 nM
- IC50 (cancer cell lines; Homo sapiens, DU-145, 72 h, DU145 cell line (prostate)): 1340 nM
- IC50 (cancer cell lines; Homo sapiens, EFO-21, 72 h, EFO21 cell line (ovary)): 3620 nM
- IC50 (cancer cell lines; Homo sapiens, EJ-28, 72 h, EJ28 cell line (bladder)): 190 nM
- IC50 (cancer cell lines; Homo sapiens, Granta-519, 72 h, GRANTA-519 cell line (hematological)): 30 nM
- IC50 (cancer cell lines; Homo sapiens, HCT-15, 72 h, HCT15 cell line (colon)): 1580 nM
- IC50 (cancer cell lines; Homo sapiens, HCT-116, 72 h, HCT116 cell line (colon)): 1180 nM
- IC50 (cancer cell lines; Homo sapiens, HEK293, 72 h, HEK293 cell line (kidney)): > 50000 nM
- IC50 (cancer cell lines; Homo sapiens, HL-60, 72 h, HL-60 cell line (hematological)): 810 nM
- IC50 (cancer cell lines; Homo sapiens, HT-29, 72 h, HT29 cell line (colon)): 160 nM
- IC50 (cancer cell lines; Homo sapiens, HT-1080, 72 h, HT1080 cell line (connective tissue)): 190 nM
- IC50 (cancer cell lines; Homo sapiens, HeLa, HELA cell line, endometrial): > 50000 nM
- IC50 (cancer cell lines; Homo sapiens, HepG2, 72 h, HEPG2 cell line (liver)): 540 nM
- IC50 (cancer cell lines; Homo sapiens, Hs-578T, HS578T cell line, breast): > 50000 nM
- IC50 (cancer cell lines; Homo sapiens, IGROV-1, 72 h, IGROV1 cell line (ovary)): 1650 nM
- IC50 (cancer cell lines; Homo sapiens, IMR-90, 72 h, IMR90 cell line, lung): > 50000 nM
- IC50 (cancer cell lines; Homo sapiens, J82, 72 h, J82 cell line (bladder)): 1080 nM
- IC50 (cancer cell lines; Homo sapiens, JEG-3, 72 h, JEG3 cell line (placenta)): 100 nM
- IC50 (cancer cell lines; Homo sapiens, JIMT-1, 72 h, JIMT1 cell line (breast)): 890 nM
- IC50 (cancer cell lines; Homo sapiens, K562, 72 h, K-562 cell line (hematological)): > 50000 nM
- IC50 (cancer cell lines; Homo sapiens, Kasumi 1, 72 h, KASUMI-1 cell line (hematological)): 400 nM
- IC50 (cancer cell lines; Homo sapiens, L-363, 72 h, L-363 cell line (hematological)): > 50000 nM
- IC50 (cancer cell lines; Homo sapiens, LoVo, LOVO cell line (colon)): 30 nM
- IC50 (cancer cell lines; Homo sapiens, MCF7, 72 h, MCF7 cell line (breast)): 1760 nM
- IC50 (cancer cell lines; Homo sapiens, MDA-MB-231, 72 h, MDAMB231 cell line (breast)): 370 nM
- IC50 (cancer cell lines; Homo sapiens, MDA-MB-435, 72 h, MDAMB435 cell line (skin)): 2520 nM
- IC50 (cancer cell lines; Homo sapiens, MDA-MB-436, 72 h, MDAMB436 cell line (breast)): 140 nM
- IC50 (cancer cell lines; Homo sapiens, MDA-MB-468, 72 h, MDAMB468 cell line (breast)): 770 nM
- IC50 (cancer cell lines; Homo sapiens, MG-63, 72 h, MG63 cell line (bone)): 680 nM
- IC50 (cancer cell lines; Homo sapiens, MHH-ES-1, 72 h, MHHES1 cell line (bone)): 1930 nM
- IC50 (cancer cell lines; Homo sapiens, MIA PaCa-2, 72 h, MIAPACA2 cell line (pancreas)): > 50000 nM
- IC50 (cancer cell lines; Homo sapiens, MINO, MINO cell line (hematological)): 10 nM
- IC50 (cancer cell lines; Homo sapiens, MV4-11, 72 h, MV4-11 cell line (hematological)): 140 nM
- IC50 (cancer cell lines; Homo sapiens, NCI-H23, 72 h, NCI-H23 cell line (lung)): 980 nM
- IC50 (cancer cell lines; Homo sapiens, NCI-H82, 72 h, NCIH82 cell line (lung)): 390 nM
- IC50 (cancer cell lines; Homo sapiens, NCI-H292, 72 h, NCIH292 cell line (lung)): > 50000 nM
- IC50 (cancer cell lines; Homo sapiens, NCI-H460, 72 h, NCIH460 cell line (lung)): 200 nM
- IC50 (cancer cell lines; Homo sapiens, OVCAR-3, 72 h, OVCAR3 cell line (ovary)): 3090 nM
- IC50 (cancer cell lines; Homo sapiens, OVCAR-4, 72 h, OVCAR4 cell line (ovary)): > 50000 nM
- IC50 (cancer cell lines; Homo sapiens, PANC-1, 72 h, PANC1 cell line (pancreas)): 1620 nM
- IC50 (cancer cell lines; Homo sapiens, PC-3, 72 h, PC3 cell line (prostate)): 2600 nM
- IC50 (cancer cell lines; Homo sapiens, PLC-PRF-5, 72 h, PLCPRF5 cell line (liver)): > 50000 nM
- IC50 (cancer cell lines; Homo sapiens, Panc1005, 72 h, PANC1005 cell line (pancreas)): > 50000 nM
- IC50 (cancer cell lines; Homo sapiens, RD, RD cell line (muscle)): 420 nM
- IC50 (cancer cell lines; Homo sapiens, Ramos, RAMOS cell line (hematological)): 160 nM
- IC50 (cancer cell lines; Homo sapiens, SAOS-2, 72 h, SAOS2 cell line (bone)): 90 nM
- IC50 (cancer cell lines; Homo sapiens, SF-268, 72 h, SF268 cell line (brain)): 220 nM
- IC50 (cancer cell lines; Homo sapiens, SF-295, 72 h, SF295 cell line (brain)): 3900 nM
- IC50 (cancer cell lines; Homo sapiens, SK-BR-3, 72 h, SKBR3 cell line (breast)): 30 nM
- IC50 (cancer cell lines; Homo sapiens, SK-HEP1, 72 h, SKHEP1 cell line (liver)): 770 nM
- IC50 (cancer cell lines; Homo sapiens, SK-LMS-1, 72 h, SKLMS1 cell line (uterus)): 1150 nM
- IC50 (cancer cell lines; Homo sapiens, SK-MEL-5, 72 h, SKMEL5 cell line, skin): > 50000 nM
- IC50 (cancer cell lines; Homo sapiens, SK-MEL-28, 72 h, SKMEL28 cell line (skin)): 2900 nM
- IC50 (cancer cell lines; Homo sapiens, SK-N-AS, SKNAS cell line (brain)): > 50000 nM
- IC50 (cancer cell lines; Homo sapiens, SK-N-SH, SKNSH cell line (brain)): > 50000 nM
- IC50 (cancer cell lines; Homo sapiens, SK-OV-3, 72 h, SKOV3 cell line (ovary)): 410 nM
- IC50 (cancer cell lines; Homo sapiens, SNB-75, 72 h, SNB75 cell line (brain)): 2820 nM
- IC50 (cancer cell lines; Homo sapiens, SU-DHL10, 72 h, SU-DHL-10 cell line (hematological)): 330 nM
- IC50 (cancer cell lines; Homo sapiens, SU-DHL-6, 72 h, SU-DHL-6 cell line (hematological)): 450 nM
- IC50 (cancer cell lines; Homo sapiens, SW-620, 72 h, SW620 cell line (colon)): 240 nM
- IC50 (cancer cell lines; Homo sapiens, T-24, 72 h, T24 cell line (bladder)): 400 nM
- IC50 (cancer cell lines; Homo sapiens, TE-671, 72 h, TE671 cell line (muscle)): 170 nM
- IC50 (cancer cell lines; Homo sapiens, THP-1, 72 h, THP-1 cell line (hematological)): 2140 nM
- IC50 (cancer cell lines; Homo sapiens, U-87 MG, U87MG cell line (brain)): 1870 nM
- IC50 (cancer cell lines; Homo sapiens, UMUC3, 72 h, UMUC3 cell line (bladder)): 1340 nM
- IC50 (cancer cell lines; Homo sapiens, UO-31, 72 h, UO31 cell line (kidney)): > 50000 nM
- IC50 (cancer cell lines; Homo sapiens, WSU-NHL, WSU-NHL cell line (hematological)): 380 nM
- IC50 (cancer cell lines; MT-3, 72 h, MT3 cell line (breast)): 60 nM
- IC50 (cancer cell lines; NCI-H358M, NCIH358M cell line (lung)): 70 nM
- IC50 (cancer cell lines; PBMC, PBMC (hematological)): 700 nM
- IC50 (cancer cell lines; RD-ES, RDES cell line (bone)): 6010 nM
- cytotoxicity against a panel of cell lines (waterfall plot) (cancer cell lines; panel of cancer and non-cancer cell lines, figure legends FIG. 1-3): selectively cytotoxic in cancer cell lines with high DDR activity
- metabolism (deamination) by human CDA (line graph) [1]: more stable than cytidine and gemcitabine
